Reference: US20090311246A1, “Method of Enhancing Remyelination in Demyelinating Diseases of the Central Nervous System” (priority 2008, published 2009)
“Also recorded” adds a separate entry of the source.

What was measured:
Normal Rabbit Serum = test: Indirect ELISA of normal rabbit serum/IgG against viral and myelin antigens; format: binding; settings: 10^−2 diluted
B6 mice with EAE = test: Clinical scores of E2 137-151 peptide-treated mice with MOG 35-55 induced EAE; format: in vivo; settings: for Disease severity, treatment from D12 post-EAE induction, compared with untreated EAE mice: 0.5 mg/injection sc in IFA on D12, 17, 22, peak D19
Description: FIG. 6 Comparison of Average Clinical Scores (±SEM) of E2 137-151 peptide-treated, and untreated B6 mice with EAE, on different days post treatment. Data shown is the average of three experiments, total numbers of mice were 21 EAE and 22 treated EAE mice. All mice were immunized subcutaneously with myelin oligodendrocyte glycoprotein (MOG) peptide 35-55 in CFA, on D0. Treated EAE mice received subcutaneous injection of E2-137 peptide (0.5 mg/injection or 25 mg/kg, based on the average weight of 20 g/mouse) in IFA, on day 12 post EAE induction. Additional inoculations of E2-137 peptide/IFA were performed twice more with 5-day intervals. Following the injection, animals were observed daily for clinical manifestations of disease and were scored on a scale of 0-VI, as above. Clinical scores of sacrificed and dead animals have been considered in average calculation till the end of the experiments on day 39.
Method—To induce EAE, fourteen 7-8 wk old B6 mice (Jackson Laboratories, Bar Harbor, Mass.) were each inoculated, subcutaneously, with […] MOG 35-55 in Complete Freund's Adjuvant (CFA) or CFA only (as control), followed by two injections of 100 ng of pertusis toxin, 48 hours apart (9, 73). Eight mice in EAE-induced group were immunized subcutaneously with E2-137-151 (0.5 mg/injection or 25 mg/kg, based on the average weight of 20 g/mouse) in IFA, one day after MOG inoculation. One additional inoculation of E2 137-151/IFA was performed 5 days later. Animals were observed daily for clinical manifestations of disease and were scored on a scale of 0-VI. 0=no abnormality; I=mild hind limb weakness (some difficulty righting themselves when turned on their back); II=moderate hind limb weakness, sometimes associated with floppy tail; III=weakness of hind limbs accompanied by some forelimb weakness, sometimes more marked on one limb or one side, but not complete paralysis; IV=hind limb paresis accompanied by mild forelimb weakness; V=paralysis of hind limbs, associated with moderate forelimb weakness; and VI-quadriplegia, moribund.
Result—Mice were immunized with MOG 35-55 in CFA, to induce EAE as described above. In the first two experiments, mice were divided into two groups, untreated, and treated after EAE induction. The treated EAE group received E2-137-151 peptide in IFA, subcutaneously on D5 post-EAE induction, before the signs of clinical disease were apparent.
Next, three experiments were performed with a total number of 21 RAE and 22 late treated EAE mice. […] EAE mice were further treated with E2-137-151 peptide on days 17 and 22 post-EAE induction. […] Peak of the disease in both RAE and D12 treated EAR mice were on D19 pi.

B6 mice = settings: unpublished data
[1] = tested on: sera from SFV-infected WT and γδ KO mice; test: ELISA of sera from SFV-infected WT and γδ KO mice against SFV, E2 peptides, PPD and rMOG; format: binding
[2] = tested on: SFV-infected WT and γδ KO mice; test: E2 137-151 peptide immunization during SFV disease: serum antibody response (ELISA); format: in vivo
From the text: Optical densities (OD) (3A) and ratios (3B) of Non-immunized/Immunized, WT and KO, of ELISA responses to SFV and to E2 peptide, 137-151 is shown. Samples were collected on days 15, 21, 28 and 35 after intraperitoneal infection of B6 mice with SFV and immunization with E2 137-151. The dilutions for sera were 1:80, Amount of antibody is shown as mean optical density (OD) of sera from three experiments±standard error of the mean (SEM). The background OD is subtracted from each time point.
To measure the antibody response of both WT and γδ KO mice against SFV and two of the peptides of the SFV envelope protein, E2, an indirect ELISA was performed. Sera were pooled from 4-6 SFV-infected WT, and 3 KO, mice on days 0, 7, 14, 21 and 35 pi. Briefly, Immunolon 2HB 96 well microtiter plates (VWR, Bridge Port, N.J.) were coated with 1 μg/well of each antigen in 100 μl/well carbonate buffer overnight at room temperature. After washing, the plates were blocked and serum samples were added. […] After washing, biotinylated goat anti-mouse Igs (BD Pharmingen, Torreyana, Calif.), Strepavidin conjugated to Horse Radish Peroxidase (Vector Laboratories, Burlingame, Calif.), and OPD substrate (Sigma, St. Louis, Mo.) were used, as previously described (4, 9). […] Values were considered to be positive when they were >0.3 OD units and exceeded the mean value plus three standard deviations for antibody response on day 0 pi of mice of the same strain.
WT and KO mice were immunized subcutaneously with E2 137-151 (0.5 mg/injection or 25 mg/kg, based on the average weight of 20 g/mouse) in IFA on the day of SFV-infection. Additional injections of E2 137/IFA were performed on days 5 and 15 for WT and KO mice. Mice are sacrificed on days 15, 21, 35 and 42 pi and sera were tested by ELISA for reactivity with SFV and its peptides. […] This immunization, however, appeared to have suppressed the formation of anti-E2 137-151 antibody in SFV-infected, E2 137-151-immunized WT mice.

CC[C@H](C)[C@H](NC(=O)[C@H](CCC(=O)O)NC(=O)[C@H](CCCCN)NC(=O)CNC(=O)[C@H](Cc1ccc(O)cc1)NC(=O)[C@H](Cc1c[nH]cn1)NC(=O)[C@@H]1CCCN1C(=O)[C@H](CCCNC(=N)N)NC(=O)[C@@H](NC(=O)[C@@H](NC(=O)[C@H](Cc1ccccc1)NC(=O)[C@H](CCCCN)NC(=O)[C@H](CCC(=O)O)NC(=O)[C@H](CCCNC(=N)N)NC(=O)CN)[C@@H](C)O)[C@@H](C)CC)C(=O)O [E2 137-151]
Normal Rabbit Serum, OD at 490 nm (Normal Rabbit Serum): 0.173 OD | Disease severity, treatment from D12 post-EAE induction, compared with untreated EAE mice (B6 mice with EAE): significantly less severe disease on peak day | Disease severity, treatment from D12 post-EAE induction, compared with untreated EAE mice (B6 mice with EAE; listed as E2 137-151 peptide): significantly suppressed the clinical disease; also recorded: improved clinical EAE | Disease severity, treatment from D12 post-EAE induction, compared with untreated EAE mice (B6 mice with EAE; listed as E2-137 peptide): Average disease severity in EAE mice was significantly higher than treated EAE mice | Clinical disease score at the peak of the disease on D19 (B6 mice with EAE; 19 treated EAE mice (of 22), scale 0-VI): < 1.5 | Clinical signs of EAE, treatment on D5 post-EAE induction (B6 mice with EAE; E2-137-151 peptide in IFA sc before clinical signs): absence of clinical signs of EAE | Histopathology after inoculation with the peptide (B6 mice): did not cause histopathology | Net change in the level of antibody, D0 WT ([1]; WT mice, day 0): 0 nano gr | Net change in the level of antibody, D7 WT ([1]; WT mice, day 7 pi, ± SD): 72 ± 28 nano gr | Net change in the level of antibody, D14 WT ([1]; WT mice, day 14 pi, ± SD): 565 ± 33 nano gr | Net change in the level of antibody, D21 WT ([1]; WT mice, day 21 pi, ± SD): 1196 ± 61 nano gr | Net change in the level of antibody, D35 WT ([1]; WT mice, day 35 pi, ± SD): 951 ± 50 nano gr | Reactivity of sera from SFV-infected WT mice ([1]; WT, sera 1:80, day 7 pi increasing to day 35): reacted strongly | Net change in the level of antibody, D0 KO ([1]; γδ KO mice, day 0): 0 nano gr | Net change in the level of antibody, D7 KO ([1]; γδ KO mice, day 7 pi, ± SD): 39 ± 25 nano gr | Net change in the level of antibody, D14 KO ([1]; γδ KO mice, day 14 pi, ± SD): 36 ± 19 nano gr | Net change in the level of antibody, D21 KO ([1]; γδ KO mice, day 21 pi, ± SD): 46.5 ± 19 nano gr | Net change in the level of antibody, D35 KO ([1]; γδ KO mice, day 35 pi, ± SD): 41 ± 28 nano gr | Reactivity of sera from SFV-infected γδ KO mice ([1]; γδ KO, sera 1:80): marginally reacted | Formation of anti-E2 137-151 antibody in SFV-infected, immunized WT mice ([2]; 0.5 mg/injection sc in IFA, WT mice): suppressed | Ratio of antibody production to SFV, immunized versus non-immunized ([2]; KO and WT mice): did not increase | Antibody to E2 137-151 peptide after immunization ([2]; SFV-infected KO mice): increased the antibody to this peptide only | Ratio of KO/WT anti E2 137-151 antibody production ([2]; immunized versus non-immunized): significantly increased
